In patent US20240182531A1, “KV1.3 Blockers” (priority 2021, published 2024):
Values joined by “and” are separate entries in the source; they are usually repeats but may differ in a detail not shown here. Equal entries are not always repeated. Where two headings read alike, the source gives them in different places. Where a SMILES comes first, the peptide text is derived from it. Bridges are numbered along the chain shown (N, C = ends). [ ]: non-standard residue; d: D form. Nle = CCCC[C@H](N)C(=O)O

Experiments:
[1] = molecular target: T1, human Kv1.3 voltage-gated K+ channel (Homo sapiens, UniProt P22001); assay: Kv1.3 blocker activity in FLIPR thallium assay; type: cell-based
T1 construct: host or cells: CHO-DUKX
Protocol: A human Kv1.3 voltage-gated K+ channel cell line was purchased from Perkin Elmer (#TDS-AX-010-C-1). The cell line is based on CHO-DUKX cells stably transfected with the human Kv1.3 voltage-gated K+ channel.
The cell line was grown in MEMα with nucleotides, GlutaMAX (Gibco #32571028), 10% Foetal Bovine Serum (FBS), 0.4 mg/ml Geneticin, 100 units/ml Penicillin, and 100 μg/ml Streptomycin and seeded at 10.000 cells/well in black poly-D-lysine-coated 96 well plates.
The FluxOR™ Potassium Ion Channel Assay (Invitrogen #F10016) was used to quantitate flux of thallium ions into the cells as a response to Kv1.3 activation with a stimulus buffer causes depolarization of the cell membrane, thereby generating a fluorescent signal, proportional to channel activity. The assay was performed as described by the assay kit manufacturer including a compound pre-incubation step (30 min, 37° C., 5% CO2) in assay buffer containing 0.02% W/v casein from bovine milk (Sigma #C4765) prior to cell membrane depolarization using a final stimuli buffer composition corresponding to 0.2× FluxOR™ chloride-free buffer, 5 mM K2SO4, 1 mM Tl2SO4. The fluorescence responses were recorded and quantified (maximum response at 50 s, 37° C.) using the FLIPR® Tetra High Throughput Screening System (Molecular Devices, Inc.).
IC50 can be regarded as a measure of potency of inhibition for the respective compound. The IC50 value is a measure of the concentration of an inhibitor required to achieve half of that compound's maximal inhibition of ion channel activity in a given assay.

[2] = Pharmacokinetic characterisation after single s.c. injection in Sprague Dawley rats; conditions: male, rat, plasma, sc, 100 nmol/kg
Protocol: Sprague Dawley (males with a body weight of approximately 250-350 g) were given a single subcutaneous (s.c.) injection of each peptide to be tested.
Following s.c. administration of the selected compounds (dose 100 nmol/kg, dosing volume either 2 mL/kg), blood samples were drawn at 5 min, 15 min, 30 min, 60 min, 2 h, 3 h, 4 h, 6 h, 8 h post-dose. At each sampling time point, samples from the rats were drawn by sublingual bleeding. After last sampling the rats were sacrificed by O2/CO2 anaesthesia. The dosing vehicle was 10 mM phosphate, 0.8% NaCl, 0.05% Polysorbate 20 (pH 6.0).
Plasma samples were analyzed after solid phase extraction (SPE) by liquid chromatography mass spectrometry (LC-MS/MS). Mean plasma concentrations were used for calculation of the pharmacokinetic parameters using the non-compartmental approach in Phoenix WinNonlin 6.4 or a later version. Plasma terminal elimination half-life (T½) was determined as In(2)/λz where λz is the magnitude of the slope of the log linear regression of the log concentration versus time profile during the terminal phase. AUCinf is the area under the plasma concentration—time curve extrapolated to infinity (AUCinf=AUClast+Clast/λz, where Clast is the last observed plasma concentration). Cmax is the maximum observed concentration, occurring at Tmax.

[3] = molecular target: T2, human Kv1.1 (Homo sapiens, UniProt Q09470); assay: cell-based
T2 construct: expressed in transfected cells; host or cells: CHO

[4] = molecular target: T3, human Kv1.2 (Homo sapiens, UniProt P16389); assay: cell-based
T3 construct: expressed in transfected cells; host or cells: CHO

[5] = molecular target: T4, human Kv1.6 (Homo sapiens, UniProt P17658); assay: cell-based
T4 construct: expressed in transfected cells; host or cells: CHO

[6] = molecular target: Rat whole blood (Rattus norvegicus, UniProt P15384); type: cell-based
[7] = test system: KLH ear inflammation model in rats; type: in vivo, rat
[8] = ratio of patch clamp IC50 values
[9] = IL-17A release, thapsigargin, 24 Hr, at least 2 replicates
[10] = 100 nmol/kg SC 24 hrs prior to KLH ear challenge, +/− SD

Sequence of Rat whole blood (P15384 whole entry): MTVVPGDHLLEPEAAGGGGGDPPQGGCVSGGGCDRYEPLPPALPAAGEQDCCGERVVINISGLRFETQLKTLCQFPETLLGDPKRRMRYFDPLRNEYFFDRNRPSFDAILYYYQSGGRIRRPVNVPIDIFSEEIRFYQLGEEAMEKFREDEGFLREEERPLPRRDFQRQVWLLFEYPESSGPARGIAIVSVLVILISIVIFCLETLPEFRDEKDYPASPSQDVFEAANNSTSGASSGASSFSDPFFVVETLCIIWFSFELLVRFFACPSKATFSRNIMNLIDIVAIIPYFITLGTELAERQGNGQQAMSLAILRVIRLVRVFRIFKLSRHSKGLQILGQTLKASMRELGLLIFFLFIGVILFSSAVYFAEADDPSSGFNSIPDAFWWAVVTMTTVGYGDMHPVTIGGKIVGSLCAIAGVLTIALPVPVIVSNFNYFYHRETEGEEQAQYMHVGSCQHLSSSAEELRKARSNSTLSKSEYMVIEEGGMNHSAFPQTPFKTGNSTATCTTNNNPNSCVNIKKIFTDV
T4 sequence (P17658 whole entry): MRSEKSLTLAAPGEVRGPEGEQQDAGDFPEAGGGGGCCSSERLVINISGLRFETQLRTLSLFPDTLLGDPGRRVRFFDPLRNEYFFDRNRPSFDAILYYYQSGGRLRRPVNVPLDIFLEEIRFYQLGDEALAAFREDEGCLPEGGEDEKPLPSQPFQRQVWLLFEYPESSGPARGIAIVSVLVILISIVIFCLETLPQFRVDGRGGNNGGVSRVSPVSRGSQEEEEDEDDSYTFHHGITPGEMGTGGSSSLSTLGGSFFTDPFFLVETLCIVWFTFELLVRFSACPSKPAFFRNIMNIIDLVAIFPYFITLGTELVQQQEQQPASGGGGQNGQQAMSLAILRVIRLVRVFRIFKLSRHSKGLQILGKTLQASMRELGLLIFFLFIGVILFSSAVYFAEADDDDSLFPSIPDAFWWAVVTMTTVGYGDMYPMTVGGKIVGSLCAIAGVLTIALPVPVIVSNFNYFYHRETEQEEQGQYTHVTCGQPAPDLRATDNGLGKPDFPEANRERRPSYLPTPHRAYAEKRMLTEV
T3 sequence (P16389 whole entry): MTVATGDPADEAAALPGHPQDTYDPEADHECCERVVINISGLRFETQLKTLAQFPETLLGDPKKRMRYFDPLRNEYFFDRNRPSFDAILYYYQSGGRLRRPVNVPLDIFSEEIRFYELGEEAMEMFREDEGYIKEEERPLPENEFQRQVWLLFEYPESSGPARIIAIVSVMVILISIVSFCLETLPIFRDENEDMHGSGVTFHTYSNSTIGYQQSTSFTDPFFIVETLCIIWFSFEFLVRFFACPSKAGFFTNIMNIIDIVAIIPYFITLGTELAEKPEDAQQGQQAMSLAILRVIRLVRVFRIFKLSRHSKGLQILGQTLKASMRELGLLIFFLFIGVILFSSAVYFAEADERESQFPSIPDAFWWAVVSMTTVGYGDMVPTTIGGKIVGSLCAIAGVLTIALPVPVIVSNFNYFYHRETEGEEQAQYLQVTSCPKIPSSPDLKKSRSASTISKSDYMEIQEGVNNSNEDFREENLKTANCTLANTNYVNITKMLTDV
T2 sequence (Q09470 whole entry): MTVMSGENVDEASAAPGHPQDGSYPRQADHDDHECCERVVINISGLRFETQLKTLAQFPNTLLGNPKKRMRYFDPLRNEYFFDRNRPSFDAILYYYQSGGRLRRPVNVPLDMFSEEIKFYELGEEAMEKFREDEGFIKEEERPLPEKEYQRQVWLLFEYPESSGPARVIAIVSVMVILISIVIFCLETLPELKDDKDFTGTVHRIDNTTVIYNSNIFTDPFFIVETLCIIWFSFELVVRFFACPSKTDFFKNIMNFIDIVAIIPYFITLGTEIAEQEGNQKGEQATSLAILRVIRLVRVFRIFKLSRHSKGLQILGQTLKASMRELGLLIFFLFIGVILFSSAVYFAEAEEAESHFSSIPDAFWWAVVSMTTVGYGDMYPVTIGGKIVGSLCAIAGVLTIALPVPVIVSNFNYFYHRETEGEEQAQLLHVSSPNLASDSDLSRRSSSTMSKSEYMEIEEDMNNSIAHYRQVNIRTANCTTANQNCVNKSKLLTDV
T1 sequence (P22001 whole entry): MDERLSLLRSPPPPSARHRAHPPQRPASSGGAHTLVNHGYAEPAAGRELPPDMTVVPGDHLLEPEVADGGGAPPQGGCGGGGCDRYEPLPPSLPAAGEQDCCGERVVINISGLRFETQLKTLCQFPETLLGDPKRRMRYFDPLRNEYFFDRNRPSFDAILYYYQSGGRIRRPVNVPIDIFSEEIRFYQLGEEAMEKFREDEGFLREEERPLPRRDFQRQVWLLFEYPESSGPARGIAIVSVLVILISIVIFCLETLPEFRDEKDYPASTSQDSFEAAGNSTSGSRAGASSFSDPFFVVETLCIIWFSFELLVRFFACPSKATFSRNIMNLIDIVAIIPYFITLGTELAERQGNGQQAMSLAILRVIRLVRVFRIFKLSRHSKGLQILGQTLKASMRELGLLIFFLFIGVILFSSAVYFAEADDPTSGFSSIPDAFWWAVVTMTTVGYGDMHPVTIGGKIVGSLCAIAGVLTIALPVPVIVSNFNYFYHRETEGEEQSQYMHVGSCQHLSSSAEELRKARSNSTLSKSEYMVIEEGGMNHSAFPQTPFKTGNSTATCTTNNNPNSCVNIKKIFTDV

Row | Compound | IC50 [1] | AUC(0-inf) [2] | Cmax [2] | half-life [2] | Selectivity ratio Kv1.1/Kv1.3 [3, 8] | Selectivity ratio Kv1.2/Kv1.3 [4, 8] | Selectivity ratio Kv1.6/Kv1.3 [5, 8] | IC50 [6, 9] | % inhibition of ear thickness (AUC of Δ ear thickness 0-48 hours) [7, 10] | Selectivity ratio Kv1.1/Kv1.3 [3] | Selectivity ratio Kv1.2/Kv1.3 [4] | Selectivity ratio Kv1.6/Kv1.3 [5] | IC50 [6] | % inhibition of ear thickness (AUC of Δ ear thickness 0-48 hours) ([7]; rat, in vivo)
1 | CCCC[C@H](NC(=O)[C@@H]1CCCN1)C(=O)N[C@@H](CCC(=O)O)C(=O)N[C@@H](CCCC)C(=O)N[C@@H](CCCNC(=N)N)C(=O)N[C@H]1CSSC[C@@H]2NC(=O)[C@H](CCCCN)NC(=O)CNC(=O)[C@H](Cc3ccccc3)NC(=O)[C@H]([C@@H](C)CC)NC(=O)[C@H](CO)NC(=O)CNC(=O)[C@H]([C@@H](C)CC)NC(=O)[C@H](C)NC(=O)[C@H](C)NC(=O)[C@H](CC(C)C)NC(=O)[C@@H]3CSSC[C@@H](C(=O)N[C@@H](Cc4ccc(O)cc4)C(=O)N4CCC[C@H]4C(=O)N[C@@H](CCCNC(=N)N)C(=O)O)NC(=O)[C@H](CCCCN)NC(=O)[C@H](CSSC[C@H](NC(=O)[C@H](CCC(=O)O)NC(=O)[C@H](C(C)C)NC(=O)[C@H](CO)NC(=O)[C@H](C)NC(=O)[C@H](Cc4c[nH]cn4)NC1=O)C(=O)N[C@@H](CCCCN)C(=O)N[C@@H](CCC(N)=O)C(=O)N[C@@H](CCCCN)C(=O)N3)NC(=O)[C@H](CCCCN)NC(=O)[C@H](CCCCN)NC(=O)[C@H](CC(N)=O)NC(=O)[C@H](CCCC)NC2=O [compound 4] (H-P[Nle]E[Nle]RCHASVECKQKCLAAIGSIFGKC[Nle]NKKCKCYPR-OH; disulfide 6-27, 12-32, 16-34) | 0.15 nM | 0.138 µM·h | 91.8 nM | 2.7 h | – | – | – | – | – | – | – | – | – | –
2 | CCCC[C@H](NC(=O)[C@@H]1CCCN1)C(=O)N[C@@H](CCC(=O)O)C(=O)N[C@@H](CCCC)C(=O)N[C@@H](CCCNC(=N)N)C(=O)N[C@H]1CSSC[C@@H]2NC(=O)[C@H](CCCCN)NC(=O)CNC(=O)[C@H](Cc3ccccc3)NC(=O)[C@H]([C@@H](C)CC)NC(=O)[C@H](CO)NC(=O)CNC(=O)[C@H]([C@@H](C)CC)NC(=O)[C@H](C)NC(=O)[C@H](C)NC(=O)[C@H](CC(C)C)NC(=O)[C@@H]3CSSC[C@@H](C(=O)N[C@@H](Cc4ccc(O)cc4)C(=O)N4CCC[C@H]4C(=O)N[C@@H](CCCNC(=N)N)C(=O)O)NC(=O)[C@H](CCCCN)NC(=O)[C@H](CSSC[C@H](NC(=O)[C@H](CCC(=O)O)NC(=O)[C@H](C(C)C)NC(=O)[C@H](CO)NC(=O)[C@H](C)NC(=O)[C@H](CO)NC1=O)C(=O)N[C@@H](CCCCN)C(=O)N[C@@H](CCC(N)=O)C(=O)N[C@@H](CCCCN)C(=O)N3)NC(=O)[C@H](CCCCN)NC(=O)[C@H](CCCCN)NC(=O)[C@H](CC(N)=O)NC(=O)[C@H](CCCC)NC2=O [compound 14] (H-P[Nle]E[Nle]RCSASVECKQKCLAAIGSIFGKC[Nle]NKKCKCYPR-OH; disulfide 6-27, 12-32, 16-34) | – | 0.183 µM·h | 103 nM | 1 h | >9100 | 3384 | >9100 | 0.43 nM | 37.7% and 42.5% | – | – | – | – | –
3 | CCCC[C@@H]1NC(=O)[C@@H]2CSSC[C@H](NC(=O)[C@H](CCCNC(=N)N)NC(=O)[C@H](CCCC)NC(=O)[C@H](CC(=O)O)NC(=O)[C@@H](NC(=O)[C@@H](N)CC(N)=O)[C@@H](C)CC)C(=O)N[C@@H](CO)C(=O)N[C@@H](C)C(=O)N[C@@H](CO)C(=O)N[C@@H](C(C)C)C(=O)N[C@@H](CCC(=O)O)C(=O)N[C@H]3CSSC[C@H](NC(=O)[C@H](CCCCN)NC(=O)[C@H](CCCCN)NC(=O)[C@H](CC(N)=O)NC1=O)C(=O)N[C@@H](CCCCN)C(=O)N[C@H](C(=O)N[C@@H](Cc1ccc(O)cc1)C(=O)N1CCC[C@H]1C(=O)N[C@@H](CCCNC(=N)N)C(=O)O)CSSC[C@H](NC(=O)[C@H](CCCCN)NC(=O)[C@H](CCC(N)=O)NC(=O)[C@H](CCCCN)NC3=O)C(=O)N[C@@H](CC(C)C)C(=O)N[C@@H](CCCCN)C(=O)N[C@@H](C)C(=O)N[C@@H]([C@@H](C)CC)C(=O)NCC(=O)N[C@@H](CO)C(=O)N[C@@H]([C@@H](C)CC)C(=O)N[C@@H](Cc1ccccc1)C(=O)NCC(=O)N[C@@H](CCCCN)C(=O)N2 [compound 91] (H-NID[Nle]RCSASVECKQKCLKAIGSIFGKC[Nle]NKKCKCYPR-OH; disulfide 6-27, 12-32, 16-34) | – | – | – | – | >11300 | 7756 | >11300 | 1.2 nM | 39.6% | – | – | – | – | –
4 | CCCC[C@@H]1NC(=O)[C@@H]2CSSC[C@H](NC(=O)[C@H](CCCNC(=N)N)NC(=O)[C@H](CCCC)NC(=O)[C@H](CCC(=O)O)NC(=O)[C@@H](NC(=O)[C@@H]3CCCN3)[C@@H](C)CC)C(=O)N[C@@H](CO)C(=O)N[C@@H](C)C(=O)N[C@@H](CO)C(=O)N[C@@H](C(C)C)C(=O)N[C@@H](CCC(=O)O)C(=O)N[C@H]3CSSC[C@H](NC(=O)[C@H](CCCCN)NC(=O)[C@H](CCCCN)NC(=O)[C@H](CC(N)=O)NC1=O)C(=O)N[C@@H](CCCCN)C(=O)N[C@H](C(=O)N[C@@H](Cc1ccc(O)cc1)C(=O)N1CCC[C@H]1C(=O)N[C@@H](CCCNC(=N)N)C(=O)O)CSSC[C@H](NC(=O)[C@H](CCCCN)NC(=O)[C@H](CCC(N)=O)NC(=O)[C@H](CCCCN)NC3=O)C(=O)N[C@@H](CC(C)C)C(=O)N[C@@H](C)C(=O)N[C@@H](C)C(=O)N[C@@H]([C@@H](C)CC)C(=O)NCC(=O)N[C@@H](CO)C(=O)N[C@@H]([C@@H](C)CC)C(=O)N[C@@H](Cc1ccccc1)C(=O)NCC(=O)N[C@@H](CCCCN)C(=O)N2 [compound 95] (H-PIE[Nle]RCSASVECKQKCLAAIGSIFGKC[Nle]NKKCKCYPR-OH; disulfide 6-27, 12-32, 16-34) | – | – | – | – | – | – | – | – | – | >8600 | 5630 | >8600 | 0.61 nM | 44.5%
5 | CCCC[C@H](NC(=O)[C@@H]1CCCN1)C(=O)N[C@@H](CCC(=O)O)C(=O)N[C@@H](CCCC)C(=O)N[C@@H](CCCNC(=N)N)C(=O)N[C@H]1CSSC[C@@H]2NC(=O)[C@H](CCCCN)NC(=O)CNC(=O)[C@H](Cc3ccccc3)NC(=O)[C@H]([C@@H](C)CC)NC(=O)[C@H](CO)NC(=O)CNC(=O)[C@H]([C@@H](C)CC)NC(=O)[C@H](C)NC(=O)[C@H](C)NC(=O)[C@H](CC(C)C)NC(=O)[C@@H]3CSSC[C@@H](C(=O)N[C@@H](Cc4ccc(O)cc4)C(=O)N4CCC[C@H]4C(=O)N[C@@H](CCCNC(=N)N)C(=O)O)NC(=O)[C@H](CCCCN)NC(=O)[C@H](CSSC[C@H](NC(=O)[C@H](CCC(=O)O)NC(=O)[C@H](C(C)C)NC(=O)[C@H](CO)NC(=O)[C@H](C)NC(=O)[C@H](CO)NC1=O)C(=O)N[C@@H](C)C(=O)N[C@@H](CCC(N)=O)C(=O)N[C@@H](CCCCN)C(=O)N3)NC(=O)[C@H](CCCCN)NC(=O)[C@H](CCCCN)NC(=O)[C@H](CC(N)=O)NC(=O)[C@H](CCCC)NC2=O [compound 97] (H-P[Nle]E[Nle]RCSASVECAQKCLAAIGSIFGKC[Nle]NKKCKCYPR-OH; disulfide 6-27, 12-32, 16-34) | – | – | – | – | >5500 | 5500 | >5500 | 1.2 nM | 48.9% | – | – | – | – | –
